Assay results as given in patent publication US9150530B2, “Esters of 4, 9-dihydroxy-naphtho [2, 3-b] furans for disease therapies” (Zhoushan Haizhongzhou Xinsheng Pharmaceuticals Co., Ltd., priority 2011, dated 2015).

Tests used:
Hela = assay: Cell viability determination (MTT), Hela; assay type: cell-based; details: Homo sapiens, cervical cancer, 48 hour incubation, read-out: Drug concentrations for 50% cell viability (IC50)
Description: (§1) Cell Culture: A549, DLD1, SW480, LOVO, HT-29, Hela, U-20S, MES-SA, SK-MEL-28, Panc-1, DU-145, CNE, U251, Eca-109, MGC80-3, QGY-7701, BEL-7404, PLC/PRF/5, Huh-7, and SGC-7901 cells were maintained in Dulbecco's Modified Eagle Medium (DMEM) (imported from Invitrogen, Carlsbad, Calif., USA) supplemented with 10% fetal bovine serum (FBS) (Si Ji Qing, Hangzhou, China) and 1% penicillin/streptomycin/amphotericin B (imported from Invitrogen, Carlsbad, Calif., USA).
(§2) Cell Viability Determination: Popular MTT method (Archives of Biochemistry and Biophysics, 1993, 303: 474-482) was used to screen the in vitro effects of the invented drugs. Briefly, 5000 to 10000 cells were inoculated per well in a 96-well plate. After overnight incubation, drug was added to the wells at final concentration of 10 μM, […], 2.5 μM, 1.25 μM, or 1 μM, 0.75 μM, 0.5 μM and 0.25 μM in complete culture medium. Each dose level covered 4 equivalent wells. After 48 hour incubation, one tenth volume of 5 mg/mL MTT (thiazolyl blue tetrazolium bromide, Sigma-Aldrich) stock solution was added, and incubation was continued for 2 hours. Then medium was removed and 100 μL of isopropanol solution comprising 86% isopropanol, 4% aqueous 1 N HCl and 10% aqueous SDS solution (10% in concentration) was added. The absorbance of each well at 570 nm wavelength was measured by a micro-plate reader after gentle shaking for 20 minutes. Drug concentrations of 50% cell viability (IC50) were calculated by LOGIT method.

DU-145 = assay: Cell viability determination (MTT), DU-145; assay type: cell-based; details: Homo sapiens, DU-145, prostate cancer, 48 hour incubation, read-out: Drug concentrations for 50% cell viability (IC50)
Description: as §1, §2

QGY-7701 = assay: Cell viability determination (MTT), QGY-7701; assay type: cell-based; details: QGY7701, QGY-7701, liver cancer, 48 hour incubation, read-out: Drug concentrations for 50% cell viability (IC50)
Description: as §1, §2

A549 = assay: Cell viability determination (MTT), A549; assay type: cell-based; details: Homo sapiens, A549, lung cancer, 48 hour incubation, read-out: Drug concentrations for 50% cell viability (IC50)
Description: as §1, §2

CNE = assay: Cell viability determination (MTT), CNE; assay type: cell-based; details: Homo sapiens, nasopharyngeal cancer, 48 hour incubation, read-out: Drug concentrations for 50% cell viability (IC50)
Description: as §1, §2

MGC80-3 = assay: Cell viability determination (MTT), MGC80-3; assay type: cell-based; details: Homo sapiens, MGC-803, MGC80-3, stomach cancer, 48 hour incubation, read-out: Drug concentrations for 50% cell viability (IC50)
Description: as §1, §2

[1] = Metabolism in biological fluid (human whole blood, cancer cell lysate, liver microsomes, mouse oral uptake), HPLC; assay type: in vitro ADME; details: liver microsomes or mouse oral uptake system, 20 μM, 37° C.
Description: Second, a major metabolite found after incubation of compound I, III, IV, VI or XIII in biological fluid, such as human whole blood, or cancer cell lysate, or liver microsomes, or mouse oral uptake system, is compound XII (FIG. 3). Similarly, a major metabolite found after incubation of compound V, VII or XIV in biological fluid is 2-(1-hydroxy-n-propyl)-naphtho[2,3-b]furan-4,9-dione (data not shown). Reduction of the position 2 substituent carbonyl group is part of quinone redox reaction as evidenced by the β-lapachone effect on the formation of compound XII in the compound XIII incubation mixture of human whole blood (part D of FIG. 3). The possible reaction mechanism is proposed as shown in scheme 7, in which the two electron reduction could be NQ01 catalyzed reduction or two successive cytochrome b5 reductase or p450 reductase catalyzed reaction. As substrate of these enzymes, β-lapachone could compete for the two electron or single electron reaction and thus reduced formation of the metabolism product.
Crystalline or amorphous solid of compound was mixed with excipient and suspended in 0.5% carboxymethylcellulose (CMC) solution in a mortar. Then the mixture was orally administered into ICR mouse at the predetermined dosage. At the predetermined time point, blood was drawn from the mouse and stored in the vial containing heparin. The blood samples were centrifuged at 6,000 rpm for 10 min, and plasmas were separated. To each plasma sample, 9 times volume of acetonitrile/methyl trifluoromethanesulfonate (1000:1) or acetonitrile/concentrated HCl (1000:1) was added. The resulting mixtures were vortexed and incubated in dry ice for 30 minutes or in −20° C. freezer for 3 hours, then centrifuged, and supernatants were separated for HPLC analysis using gradient B.
The biological systems for in vitro metabolism study include: human whole blood stabilized with sodium citrate; cancer cell lysate (obtained using freeze-thaw method, 10 mg/ml in protein concentration for use); liver microsomes with NADPH generation system (prepared according to the protocol provided by iPhase Pharma, Beijing, China);
10 mM of a compound of formula I or its analog or compound XIII in DMSO (however, compound VI was in DMF) was added into the biological system to a final concentration of 20 μM. The mixtures were incubated at 37° C. for predetermined time. To each sample, then 9 times volume of acetonitrile was added. The resulting mixtures were vortexed and incubated in dry ice for 30 minutes or in −20° C. freezer for 3 hours, then centrifuged, and supernatants were separated for HPLC analysis using gradient B.

U251 = assay: Cell viability determination (MTT), U251; assay type: cell-based; details: Homo sapiens, U-251, U251, glioma, 48 hour incubation, read-out: Drug concentrations for 50% cell viability (IC50)
Description: as §1, §2

LOVO = assay: Cell viability determination (MTT), LOVO; assay type: cell-based; details: Homo sapiens, colorectal cancer, 48 hour incubation, read-out: Drug concentrations for 50% cell viability (IC50)
Description: as §1, §2

U-20S = assay: Cell viability determination (MTT), U-20S; assay type: cell-based; details: osteosarcoma, 48 hour incubation, read-out: Drug concentrations for 50% cell viability (IC50)
Description: as §1, §2

SW480 = assay: Cell viability determination (MTT), SW480; assay type: cell-based; details: Homo sapiens, SW480, colorectal cancer, 48 hour incubation, read-out: Drug concentrations for 50% cell viability (IC50)
Description: as §1, §2

SK-MEL-28 = assay: Cell viability determination (MTT), SK-MEL-28; assay type: cell-based; details: Homo sapiens, SK-MEL-28, malignant melanoma, 48 hour incubation, read-out: Drug concentrations for 50% cell viability (IC50)
Description: as §1, §2

Panc-1 [2] = assay: Cell viability determination (MTT), Panc-1; assay type: cell-based; details: Homo sapiens, Panc-1, pancreatic cancer, 48 hour incubation, read-out: Drug concentrations for 50% cell viability (IC50)
Description: as §1, §2

MES-SA = assay: Cell viability determination (MTT), MES-SA; assay type: cell-based; details: Homo sapiens, leiomyosarcoma, 48 hour incubation, read-out: Drug concentrations for 50% cell viability (IC50)
Description: as §1, §2

DLD1 [3] = assay: Cell viability determination (MTT), DLD1; assay type: cell-based; details: Homo sapiens, DLD-1, DLD1, colorectal cancer, 48 hour incubation, read-out: Drug concentrations for 50% cell viability (IC50)
Description: as §1, §2

Eca-109 = assay: Cell viability determination (MTT), Eca-109; assay type: cell-based; details: Homo sapiens, Eca-109, esophageal cancer, 48 hour incubation, read-out: Drug concentrations for 50% cell viability (IC50)
Description: as §1, §2

[4] = Human plasma incubation, HPLC analysis of degradation products; assay type: in vitro ADME; details: 20 μM in human plasma, 37° C., 2 hours
Description: The compounds of formula I were incubated in human plasma at 37° C. for 2 hours, and then the mixtures were treated with acetonitrile to remove protein and the resulting supernatants were analyzed by HPLC (FIG. 2). […] Without wishing to be bound by a particular theory, it is believed that, although not detected due to instability in a protein-free environment, the direct hydrolysis product of a compound of formula I, 4,9-dihydroxy-naphtho[2,3-b]furan, and its partially oxidized product semihydroquinone (shown in scheme 6) co-exist in vivo and play important biological roles.
HPLC column: Waters Sunfire C18, 250×4.60 mm 5 micron; Mobile phase: buffer A, 90% 5 mM potassium phosphate buffer, pH 6.8, 10% acetonitrile; buffer B, 15% 5 mM potassium phosphate buffer, pH 6.8, 85% acetonitrile; Detector: Waters 2998 Photodiode Array Detector.
Gradient B: 0-3 min, 50% buffer B, 3-5 min, 50%-100% buffer B, 5-18 min, 100% buffer B, 18-22 min, 100%-50% buffer B, 22-25 min, […]; flow rate, 1 ml/min. Analysis of the 4,9-dihydroxy-naphtho[2,3-b]furan compounds (FIG. 1)
10 mM of a compound of formula I or its analog in DMSO (however, compound VI was in DMF) was diluted with human plasma to 20 μM, and the resulting mixtures were incubated at 37° C. for 2 hours. To plasma sample, 9 times volume of acetonitrile was added. The resulting mixtures were vortexed and incubated in dry ice for 30 minutes or in −20° C. freezer for 3 hours, then centrifuged, and supernatant was used for HPLC analysis using gradient B.

Panc-1 [5] = assay: Effect of NQ01 inhibitor (dicumarol) on biological activity, MTT, Panc-1; assay type: cell-based; details: Panc-1 (no significant NQ01 enzymatic activity); dicumarol 40 μM; 48 hr
Description: as §2
(§3) Effect of NQ01 Inhibitor (Dicumarol) on the Biological Activities of 2-acetyl-4,9-diacetoxy-naphtho[2,3-b]furan and Compound XIII (Part B and C of FIG. 4):MTT assay was used for this experiment. Same procedure as described in “Cell Viability Determination” section. […] The viability of cells at each well was read out after 48 hr incubation in cell culture incubator.

DLD1 [6] = assay: Effect of NQ01 inhibitor (dicumarol) on biological activity, MTT, DLD1; assay type: cell-based; details: DLD1 (significant NQ01 enzymatic activity); dicumarol 40 μM; 48 hr
Description: as §2, §3

SMILES | IC50 (Hela) | IC50 (DU-145) | IC50 (QGY-7701) | IC50 (A549) | IC50 (CNE) | IC50 (MGC80-3) | Major metabolite found after incubation in biological fluid [1] | IC50 (U251) | IC50 (LOVO) | IC50 (U-20S) | IC50 (SW480) | IC50 (SK-MEL-28) | IC50 (Panc-1 [2]) | IC50 (MES-SA) | IC50 (DLD1 [3]) | IC50 (Eca-109) | Degradation / detectable products after incubation in human plasma [4] | Dicumarol effect on anticancer activity (Panc-1 [5]) | Dicumarol effect on anticancer activity (DLD1 [6])
CC(=O)c1cc2c(O)c3ccccc3c(OC(=O)CNC(=O)OC(C)(C)C)c2o1 [compound III, 2-acetyl-4-hydroxy-9-[(tert-butoxycarbonyl)amino]acetoxy-naphtho[2,3-b]furan] | 1250 to 2500 nM | 1250 to 2500 nM | 4800 nM | 1250 to 2500 nM | 1870 nM | 1650 nM | compound XII | 2070 nM | 3100 nM | 2500 to 5000 nM | 1550 nM | 890 nM | 1770 nM | 470 nM | 1030 nM | 2550 nM |  |  | 
CC(=O)c1cc2c(OC(=O)C(C)(C)C)c3ccccc3c(OC(=O)C(C)(C)C)c2o1 [compound II, 2-acetyl-4,9-Bis(pivaloxy)-naphtho[2,3-b]furan] |  |  |  |  |  |  |  |  | > 4000 nM |  | > 4000 nM |  | 3000 nM |  | > 4000 nM | > 4000 nM | barely degraded |  | 
CC(=O)c1cc2c(OC(=O)C(Cl)Cl)c3ccccc3c(OC(=O)C(Cl)Cl)c2o1 [compound VI, 2-acetyl-4,9-Bis(dichloroacetoxy)-naphtho[2,3-b]furan] | 400 nM | 1000 nM |  | 400 nM | 1100 nM | 600 nM | compound XII | 700 nM | 1500 nM | 800 nM | 600 nM |  | 1000 nM | 270 nM | 900 nM | 800 nM |  |  | 
CC(=O)c1cc2c(OC(=O)C(C)C)c3ccccc3c(OC(=O)C(C)C)c2o1 [compound I] | < 2500 nM | < 2500 nM | 2870 nM | < 2500 nM | 2500 nM | 2500 nM | compound XII | < 2500 nM | 2800 nM | 5700 nM | < 2500 nM |  | < 2500 nM | < 2500 nM | < 2500 nM | 5500 nM | the detectable products were compound XIII and partially degraded products |  | 
CC(=O)Oc1c2ccccc2c(OC(C)=O)c2oc(C(C)=O)cc12 [2-acetyl-4,9-bis(acetoxy)-naphtho[2,3-b]furan, reference compound] | 1200 nM | 1000 nM |  | 1700 nM | 1500 nM |  |  | 1080 nM | 1100 nM | 1000 nM | 860 nM | 300 nM | 1500 nM | 600 nM | 1800 nM | 1400 nM | the only detectable product was compound XIII | dicumarol showed little effect | dicumarol attenuates anticancer activities
